Ka data for 2 compounds are collected here from article PMC8347432 (2021).

Assay [1] relates to octamer duplex d(GCGATCGC)2 (3) (DNA, duplex) GCGATCGC
Briefly: DOSY NMR (PGSE diffusion coefficients). As to conditions: 25 mM NaCl, 25 mM K3PO4, D2O buffer, pH 6.4, 10 °C, 0.29 mM compound.

Assay [2] shares this test system. Briefly: 1H NMR titration (chemical shift). Conditions: 25 mM NaCl, 25 mM K3PO4, D2O buffer, pH 6.0, 10 °C, 0.29 mM compound.

Take `CCc1c2c(nc3ccc(O)c(CN4CCC4)c13)-c1cc3c(c(=O)n1[C@@H]2CO)COC(=O)[C@]3(O)CC`: the Ka turned out to be 2.0 ± 0.3 mM⁻¹ in assay [1] (0.87 mM octamer) and 3.76 ± 1.19 mM⁻¹ in assay [2].

`CCc1c2c(nc3ccc(O)c(CN4CCC4)c13)-c1cc3c(c(=O)n1[C@H]2CO)COC(=O)[C@]3(O)CC`: the Ka in assay [1] (0.92 mM octamer) amounted to 5.9 ± 0.3 mM⁻¹; in assay [2] (5.89 ± 1.07 omitting H12 and H14), 5.00 ± 2.02 mM⁻¹.
